Like-named read-outs stand apart in the source and are kept apart here.
Tests used:
[1] = biological target: T1, HCV NS5B RdRp genotype 1b (Hepatitis C virus genotype 1b, UniProt Q9WMX2); experiment: Modified HCV NS5B RdRp enzyme assay (preincubation protocol); assay type: biochemical
T1 construct: The protein was expressed with an 18 amino acid C-terminal truncation to enhance the solubility; made in house; host or cells: E. coli BL21 (DE3)
Method: HCV NS5B RdRp cloning, expression, and purification. The cDNA encoding the NS5B protein of HCV, genotype 1b, was cloned into the pET21a expression vector. The protein was expressed with an 18 amino acid C-terminal truncation to enhance the solubility. The E. coli competent cell line BL21 (DE3) was used for expression of the protein. Cultures were grown at 37° C. for ˜4 hours until the cultures reached an optical density of 2.0 at 600 nm. The cultures were cooled to 20° C. and induced with 1 mM IPTG. Fresh ampicillin was added to a final concentration of 50 μg/ml and the cells were grown overnight at 20° C.
Cell pellets (3 L) were lysed for purification to yield 15-24 mgs of purified NS5B. The lysis buffer consisted of 20 mM Tris-HCl, pH 7.4, 500 mM NaCl, 0.5% triton X-100, 1 mM DTT, 1 mM EDTA, 20% glycerol, 0.5 mg/ml lysozyme, 10 mM MgCl2, 15 ug/ml deoxyribonuclease I, and Complete TM protease inhibitor tablets (Roche). After addition of the lysis buffer, frozen cell pellets were resuspended using a tissue homogenizer. To reduce the viscosity of the sample, aliquots of the lysate were sonicated on ice using a microtip attached to a Branson sonicator. The sonicated lysate was centrifuged at 100,000×g for 1 hr at 4° C. and filtered through a 0.2 μm filter unit (Corning).
The protein was purified using three sequential chromatography steps: Heparin sepharose CL-6B, polyU sepharose 4B, and Hitrap SP sepharose (Pharmacia). The chromatography buffers were identical to the lysis buffer but contained no lysozyme, deoxyribonuclease I, MgCl2 or protease inhibitor and the NaCl concentration of the buffer was adjusted according to the requirements for charging the protein onto the column. Each column was eluted with a NaCl gradient which varied in length from 5-50 column volumes depending on the column type. After the final chromatography step, the resulting purity of the enzyme is >90% based on SDS-PAGE analysis. The enzyme was aliquoted and stored at −80° C.
Standard HCV NS5B RdRp enzyme assay. HCV RdRp genotype 1b assays were run in a final volume of 60 μl in 96 well plates (Costar 3912). The assay buffer is composed of 20 mM Hepes, pH 7.5, 2.5 mM KCl, 2.5 mM MgCl2, 1 mM DTT, 1.6 U RNAse inhibitor (Promega N2515), 0.1 mg/ml BSA (Promega R3961), and 2% glycerol. All compounds were serially diluted (3-fold) in DMSO and diluted further in water such that the final concentration of DMSO in the assay was 2%. HCV RdRp genotype 1b enzyme was used at a final concentration of 28 nM. A polyA template was used at 6 nM, and a biotinylated oligo-dT 12 primer was used at 180 nM final concentration. Template was obtained commercially (Amersham 27-4110). Biotinylated primer was prepared by Sigma Genosys. 3H-UTP was used at 0.6 μCi (0.29 μM total UTP). Reactions were initiated by the addition of enzyme, incubated at 30° C. for 60 min, and stopped by adding 25 μl of 50 mM EDTA containing SPA beads (4 μg/μl, Amersham RPNQ 0007). Plates were read on a Packard Top Count NXT after >1 hr incubation at room temperature.
Modified HCV NS5B RdRp enzyme assay. A modified enzyme assay was performed essentially as described for the standard enzyme assay except for the following: The biotinylated oligo dT12 primer was precaptured on streptavidin-coated SPA beads by mixing primer and beads in assay buffer and incubating at room temperature for one hour. Unbound primer was removed after centrifugation. The primer-bound beads were resuspended in 20 mM Hepes buffer, pH 7.5 and used in the assay at final concentrations of 20 nM primer and 0.67 μg/μl beads. Order of addition in the assay: enzyme (14 nM) was added to diluted compound followed by the addition of a mixture of template (0.2 nM), 3H-UTP (0.6 μCi, 0.29 μM), and primer-bound beads, to initiate the reaction; concentrations given are final. Reactions were allowed to proceed for 4 hours at 30° C.
IC50 values for compounds were determined using seven different [I]. […]

HCV replicon cells = experiment: HCV replicon FRET assay; assay type: cell-based
Excerpt: FRET Assay Preparation. To perform the HCV FRET screening assay, 96-well cell culture plates were used. The FRET peptide (Anaspec, Inc.) (Taliani et al., Anal. Biochem. 1996, 240, 60-67) contains a fluorescence donor, EDANS, near one end of the peptide and an acceptor, DABCYL, near the other end. The fluorescence of the peptide is quenched by […] resonance energy transfer (RET) between the donor and the acceptor, but as the NS3 protease cleaves the peptide the products are released from RET quenching and the fluorescence of the donor becomes apparent. The assay reagent was made as follows: 5× cell Luciferase cell culture lysis reagent from Promega (#E153A) diluted to 1× with dH2O, NaCl added to 150 mM final, the FRET peptide diluted to 20 μM final from a 2 mM stock.
To prepare plates, HCV replicon cells, with or without a Renilla luciferase reporter gene, were trypsinized and placed into each well of a 96-well plate with titrated test compounds added in columns 3 through 12; columns 1 and 2 contained a control compound (HCV protease inhibitor), and the bottom row contained cells without compound. The plates were then placed in a CO2 incubator at 37° C.
Assays. Subsequent to addition of the test compounds described above (FRET Assay Preparation), at various times the plate was removed and Alamar blue solution (Trek Diagnostics, #00-100) was added per well as a measure of cellular toxicity. After reading in a Cytoflour 4000 instrument (PE Biosystems), plates were rinsed with PBS and then used for FRET assay by the addition of 30 ul of the FRET peptide assay reagent described above (FRET Assay Preparation) per well. The plate was then placed into the Cytoflour 4000 instrument which had been set to 340 excite/490 emission, automatic mode for 20 cycles and the plate read in a kinetic mode. Typically, the signal to noise using an endpoint analysis after the reads was at least three-fold. Alternatively, after Alamar blue reading, plates were rinsed with PBS, 50 ul of DMEM (high glucose) without phenol red was added and plates were then used for luciferase assay using the Promega Dual-Glo Luciferase Assay System.
Compound analysis was determined by quantification of the relative HCV replicon inhibition and the relative cytotoxicity values. To calculate cytoxicity values, the average Alamar Blue fluorescence signals from the control wells were set as 100% non-toxic. The individual signals in each of the compound test wells were then divided by the average control signal and multiplied by 100% to determine […]. To calculate the HCV replicon inhibition values, an average background value was obtained from the two wells containing the highest amount of HCV protease inhibitor at the end of the assay period. These numbers were similar to those obtained from naïve Huh-7 cells.
The background numbers were then subtracted from the average signal obtained from the control wells and this number was used as 100% activity. The individual signals in each of the compound test wells were then divided by the averaged control values after background subtraction and multiplied by 100% to determine percent activity. EC50 values for a protease inhibitor titration were calculated as the concentration which caused a 50% reduction in FRET or luciferase activity. The two numbers generated for the compound plate, percent cytoxicity and percent activity were used to determine compounds of interest for further analysis.

T1 sequence (Q9WMX2 2420-2992): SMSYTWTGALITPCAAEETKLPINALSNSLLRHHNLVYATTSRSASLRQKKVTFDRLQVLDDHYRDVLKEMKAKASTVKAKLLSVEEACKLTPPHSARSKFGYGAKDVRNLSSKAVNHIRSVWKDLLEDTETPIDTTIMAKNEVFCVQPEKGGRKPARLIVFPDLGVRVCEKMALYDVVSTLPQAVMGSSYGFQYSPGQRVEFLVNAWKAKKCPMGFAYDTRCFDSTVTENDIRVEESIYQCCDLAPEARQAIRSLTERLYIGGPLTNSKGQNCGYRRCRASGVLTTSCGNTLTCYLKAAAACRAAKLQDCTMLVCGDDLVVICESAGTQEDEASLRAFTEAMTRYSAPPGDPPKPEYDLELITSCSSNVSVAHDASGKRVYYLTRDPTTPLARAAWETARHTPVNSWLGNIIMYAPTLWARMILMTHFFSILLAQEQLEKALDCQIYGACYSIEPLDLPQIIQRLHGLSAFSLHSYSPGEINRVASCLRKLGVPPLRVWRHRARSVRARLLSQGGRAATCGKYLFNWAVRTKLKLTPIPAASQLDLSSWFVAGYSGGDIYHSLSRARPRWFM

SMILES | IC50 [1] [nM] | EC50 (HCV replicon cells; Hepatitis C virus) [nM] | EC50 (HCV replicon cells) [nM]
COc1ccc2c(c1)C=C(C(=O)N1CC3CCC(C1)N3C(=O)OC(C)(C)C)Cn1c-2c(C2CCCCC2)c2ccc(C(=O)NS(=O)(=O)N(C)C)cc21 | 1 to 500 | 1 to 500 | 
COc1ccc2c(c1)C=C(C(=O)N1CC3CCC(C1)N3)Cn1c-2c(C2CCCCC2)c2ccc(C(=O)NS(=O)(=O)N(C)C)cc21 | 1 to 500 | 1 to 500 | 
COc1ccc2c(c1)CC(C(=O)N1C3CCC1CN(C)C3)Cn1c-2c(C2CCCCC2)c2ccc(C(=O)NS(=O)(=O)N(C)C)cc21 (stereo not drawn) | 1 to 500 | 1 to 500 | 
COc1ccc2c(c1)C=C(C(=O)N1CC3CCC(C1)N3C)Cn1c-2c(C2CCCCC2)c2ccc(C(=O)NS(=O)(=O)N(C)C)cc21 | 1 to 500 | 1 to 500 | 
COc1cccc2c1C=C(C(=O)N1C3CCC1CN(C)C3)Cn1c-2c(C2CCCCC2)c2ccc(C(=O)NS(=O)(=O)N(C)C)cc21 | 1 to 500 | 1 to 500 | 
COc1cccc2c1C=C(C(=O)N1CC3CCC(C1)N3C(=O)OC(C)(C)C)Cn1c-2c(C2CCCCC2)c2ccc(C(=O)NS(=O)(=O)N(C)C)cc21 | 1 to 500 | 1 to 500 | 
COc1cccc2c1C=C(C(=O)N1CC3CCC(C1)N3)Cn1c-2c(C2CCCCC2)c2ccc(C(=O)NS(=O)(=O)N(C)C)cc21 | 1 to 500 | 1 to 500 | 
COc1cccc2c1C=C(C(=O)N1CC3CCC(C1)N3C)Cn1c-2c(C2CCCCC2)c2ccc(C(=O)NS(=O)(=O)N(C)C)cc21 | 1 to 500 | 1 to 500 | 
COc1ccc2c(c1)C=C(C(=O)N1C3CCC1CN(C1CC1)C3)Cn1c-2c(C2CCCCC2)c2ccc(C(=O)NS(=O)(=O)N(C)C)cc21 | < 20 | 1 to 500 | 
COC(=O)c1ccc2c(C3CCCCC3)c3n(c2c1)CC(C(=O)N1C2CCC1CN(C)C2)=Cc1c(OC(F)(F)F)cccc1-3 | > 500 | > 500 | 
CN1CC2CCC(C1)N2C(=O)C1=Cc2c(OC(C)(F)F)cccc2-c2c(C3CCCCC3)c3ccc(C(=O)NS(=O)(=O)N(C)C)cc3n2C1 | > 500 | > 500 | 
COc1ccc2c(c1)C=C(C(=O)N1C3CCC1CN(C)C3)Cn1c-2c(C2CCCCC2)c2ccc(C(=O)NS(=O)(=O)C3CC3)cc21 | 1 to 500 | 1 to 500 | 
COC(=O)c1ccc2c(C3CCCCC3)c3n(c2c1)CC(C(=O)N1C2CCC1CN(C)C2)=Cc1cc(OC)ccc1-3 | > 500 | > 500 | 
COc1ccc2c(c1)C=C(C(=O)N1C3CCC1CN(C)C3)Cn1c-2c(C2CCCCC2)c2ccc(C(=O)O)cc21 | 1 to 500 | 1 to 500 | 
COc1ccc2c(c1)C=C(C(=O)N1C3CCC1CN(C)C3)Cn1c-2c(C2CCCCC2)c2ccc(C(=O)NS(=O)(=O)C(C)C)cc21 | 1 to 500 | 1 to 500 | 
CCC(C)S(=O)(=O)NC(=O)c1ccc2c(C3CCCCC3)c3n(c2c1)CC(C(=O)N1C2CCC1CN(C)C2)=Cc1cc(OC)ccc1-3 (stereo not drawn) | 1 to 500 | 1 to 500 | 
COc1ccc2c(c1)C=C(C(=O)N1C3CCC1CN(C)C3)Cn1c-2c(C2CCCCC2)c2ccc(C(=O)NS(=O)(=O)N(C)C)cc21 [drawing 16] | 1 to 500 |  | 1 to 500
COc1ccc2c(c1)C=C(C(=O)N1C3CCC1CN(C)C3)Cn1c-2c(C2CCCCC2)c2ccc(C(=O)NS(=O)(=O)N(C)C)cc21 [drawing 25] | 1 to 500 | 1 to 500 | 
